The values that follow come from ChEMBL document CHEMBL5260832, “Hepatoprotective natural triterpenoids” (Eur J Med Chem, 2018).

Type in all cases: functional
Assay [1] has as its system HepG2. Nature of the assay: Hepatoprotective activity against H2O2-induced cell death in human HepG2 cells assessed as elevated level AST at 65.7 uM.
The test system of assay [2] is HepG2. Nature of the assay: Hepatoprotective activity against H2O2-induced cell death in human HepG2 cells assessed as elevated level ALT at 65.7 uM.
Assay [3] relates to Rattus norvegicus. Nature of the assay: Hepatoprotective activity in ethanol-induced rat model of liver injury assessed as reduction in AST level at 4 mg/kg relative to control. More on the design: scale not given: the % may be the effect or the level left.
Assay [4] deals with Rattus norvegicus. Nature of the assay: Hepatoprotective activity in ethanol-induced rat model of liver injury assessed as reduction in ALT level at 4 mg/kg relative to control. More on the design: scale not given: the % may be the effect or the level left.
In assay [5] the test system is Rattus norvegicus. Nature of the assay: Hepatoprotective activity in GaIN-induced rat model of liver injury assessed as reduction in ALT level at 4 mg/kg relative to control. On the set-up: scale not given: the % may be the effect or the level left.
The species entered for assay [6] is Mus musculus. Nature of the assay: Hepatoprotective activity in CCl4-induced toxicity in liver injured mouse assessed as increase in inhibition of liver damage relative to control. More on the design: concentration or dose not given beside the values.
Assay [7] is filed under the species Mus musculus. Nature of the assay: Hepatoprotective activity in mouse liver homogenate assessed as inhibition of iron/ascorbate lipid peroxidation at 5.0 mg/mL relative to control. On the set-up: scale not given: the % may be the effect or the level left.
Assay [8] concerns Hepatocyte. Nature of the assay: Hepatoprotective activity against D-GaIN/TNFalpha induced cell death in mouse hepatocytes assessed as cell survival rate at 200 uM relative to control.
In assay [9] the test system is Hepatocyte. Nature of the assay: Hepatoprotective activity against D-GaIN/TNFalpha induced cell death in mouse hepatocytes assessed as cell survival rate at 100 uM relative to control.
In assay [10] the test system is Hepatocyte. Nature of the assay: Hepatoprotective activity against D-GaIN/TNFalpha induced cell death in mouse hepatocytes assessed as cell survival rate at 50 uM relative to control.
The species entered for assay [11] is Mus musculus. Nature of the assay: Hepatoprotective activity in CCl4-induced toxicity in liver injured mouse assessed as increase in inhibition of liver damage at 50 uM relative to control. On the set-up: scale not given: the % may be the effect or the level left.
Assay [12] is filed under the species Mus musculus. Nature of the assay: Hepatoprotective activity in GaIN-induced toxicity in liver injured mouse assessed as increase in inhibition of liver damage at 50 uM relative to control. On the set-up: scale not given: the % may be the effect or the level left.
Assay [13] concerns Hepatocyte. Nature of the assay: Hepatoprotective activity against CCL4-induced rat hepatocyte toxicity assessed as decrease in AST level at 0.25 mg/ml (reference value: 243.5 U/L).
Assay [14] relates to Hepatocyte. Nature of the assay: Hepatoprotective activity against CCL4-induced rat hepatocyte toxicity assessed as decrease in ALT level at 0.25 mg/ml (reference value: 119.0 U/L).
For assay [15], the system named is Hepatocyte. Nature of the assay: Hepatoprotective activity against CCL4-induced rat hepatocyte toxicity assessed as decrease in MDA level at 0.25 mg/ml (reference value: 9.22 nmol/mg).
In assay [16] the test system is Hepatocyte. Nature of the assay: Hepatoprotective activity against CCL4-induced rat hepatocyte toxicity assessed as increase in GSH level at 0.25 mg/ml (reference value: 3.7 mg/g).
The subject of assay [17] is Hepatocyte. Nature of the assay: Hepatoprotective activity against CCL4-induced rat hepatocyte toxicity assessed as increase in SOD level at 0.25 mg/ml (reference value: 125.8 U/L).
In assay [18] the test system is Rattus norvegicus. Nature of the assay: Hepatoprotective activity in CCl4-induced rat model assessed as elevated level of GPT at 10 mg/kg relative to control.
The subject of assay [19] is Rattus norvegicus. Nature of the assay: Hepatoprotective activity in CCl4-induced rat model assessed as elevated level of GPT at 20 mg/kg relative to control.
Assay [20] has as its system Rattus norvegicus. Nature of the assay: Hepatoprotective activity in CCl4-induced rat model assessed as elevated level of GOT at 10 mg/kg relative to control.
Assay [21] relates to Rattus norvegicus. Nature of the assay: Hepatoprotective activity in CCl4-induced rat model assessed as elevated level of GOT at 20 mg/kg relative to control.
The subject of assay [22] is Rattus norvegicus. Nature of the assay: Hepatoprotective activity in CCl4-induced rat model assessed as elevated level of ALP at 10 mg/kg relative to control.
Assay [23] has as its system Rattus norvegicus. Nature of the assay: Hepatoprotective activity in CCl4-induced rat model assessed as elevated level of ALP at 20 mg/kg relative to control.
The test system of assay [24] is Rattus norvegicus. Nature of the assay: Hepatoprotective activity in CCl4-induced rat model assessed as elevated level of bilirubin at 10 mg/kg relative to control.
Assay [25] has as its system Rattus norvegicus. Nature of the assay: Hepatoprotective activity in CCl4-induced rat model assessed as elevated level of bilirubin at 20 mg/kg relative to control.
The test system of assay [26] is Huh-7. Nature of the assay: Hepatoprotective activity in human Huh-7 cells assessed as reduction in AST level. On the set-up: scale not given: the % may be the effect or the level left.
Assay [27] relates to Huh-7. Nature of the assay: Hepatoprotective activity in human Huh-7 cells assessed as reduction in ALT level. More on the design: scale not given: the % may be the effect or the level left.
Assay [28] deals with Huh-7. Nature of the assay: Hepatoprotective activity in human Huh-7 cells assessed as increasing in GSH level.
Assay [29] has as its system Hepatocyte. Nature of the assay: Hepatoprotective activity against D-GaIN-induced toxicity in mouse hepatocytes at 3 uM relative to control.
The test system of assay [30] is Hepatocyte. Nature of the assay: Hepatoprotective activity against D-GaIN-induced toxicity in mouse hepatocytes at 10 uM relative to control.
The subject of assay [31] is Hepatocyte. Nature of the assay: Hepatoprotective activity against D-GaIN-induced toxicity in mouse hepatocytes at 30 uM relative to control.
The test system of assay [32] is Hepatocyte. Nature of the assay: Hepatoprotective activity against D-GaIN-induced toxicity in mouse hepatocytes at 100 uM relative to control.

As to `C[C@H]1C(=O)CC[C@@H]2[C@]1(C)CC[C@H]1[C@@]2(C)CC[C@@]2(C)[C@@H]3CC(C)(C)CC[C@]3(C)CC[C@]12C` [FRIEDELINE], the figures for the Activity in [1] and in assay [2] were 67.5% and 30.8%, respectively.

For the compound `C[C@H]1[C@H](C)CC[C@]2(C(=O)O)CC[C@]3(C)C(=CC[C@@H]4[C@@]5(C)C[C@@H](O)[C@H](O)[C@@](C)(CO)[C@@H]5CC[C@]43C)[C@H]12` [ASIATIC ACID], the Activity came out at 25% in [3], 20% in [4], 23.1% in assay [5] and 1% in assay [6].

Turning to `C=C(C)[C@@H]1CC[C@]2(C(=O)O)CC[C@]3(C)[C@H](CC[C@@H]4[C@@]5(C)CC[C@H](O)C(C)(C)[C@@H]5CC[C@]43C)[C@@H]12` [BETULINIC ACID], the Activity in [7] was 52.7%; in [8], 23%; in [9], 26.1%; in assay [10], 39.2%.

Turning to `C[C@H]1[C@H](C)CC[C@]2(C(=O)O)CC[C@]3(C)C(=CC[C@@H]4[C@@]5(C)CC(=O)[C@H](O)[C@@](C)(CO)[C@@H]5CC[C@]43C)[C@H]12`, the Activity in assay [11] is listed as 54.3%; in assay [12] it was 49%.

Take `CC1(C)CC[C@]2(C(=O)O[C@@H]3O[C@H](CO[C@@H]4O[C@H](CO)[C@@H](O)[C@H](O)[C@H]4O)[C@@H](O)[C@H](O)[C@H]3O)CC[C@]3(C)C(=CC[C@@H]4[C@@]5(C)CCC(O[C@@H]6OC[C@H](O)[C@H](O)[C@H]6O)[C@@](C)(CO)[C@@H]5CC[C@]43C)[C@@H]2C1` (some centres not stated): the Activity in assay [13] came to 167.5 U/L; in [14] it was 82.1 U/L; in assay [15], 9.22 nmol/mg; in [16], 5.3 mg/g; in assay [17], 161.4 U/L.

Regarding `CC(C)[C@@H]1CC[C@@H]2C3=CC[C@@H]4[C@@]5(C)CC[C@@H](O)C(C)(C)[C@@H]5CC[C@@]4(C)[C@]3(C)CC[C@]21C(=O)O`, the Activity in assay [18] turned out to be 24%; in assay [19] it was 13%; in [20], 13%; in [21], 21%; in [22], 5%; in assay [23], 32%. In addition, the Activity in assay [24] was determined as 30%; in assay [25] it was 24%.

On to `C[C@H]1[C@H](C)CC[C@]2(C(=O)O)CC[C@]3(C)C(=CC[C@@H]4[C@@]5(C)CC[C@H](O)C(C)(C)[C@@H]5CC[C@]43C)[C@H]12` [URSOLIC ACID], for which the results for the Activity in assay [26], in assay [27] and in assay [28] were 37.5%, 37.5% and 2.37 mg, respectively.

With `CC1(C)CC[C@]2(C(=O)O[C@@H]3O[C@H](CO)[C@@H](O)[C@H](O)[C@H]3O)CC[C@]3(C)C(=CC[C@@H]4[C@@]5(C)C[C@@H](O)[C@H](O)C(C)(C)[C@@H]5CC[C@]43C)[C@@H]2[C@@H]1O`, the Activity is 11.1% in assay [29], 24.5% in assay [30], 25.2% in [31] and 15.6% in assay [32].
